Laboratory results as given in patent US7598293B2, “Compounds and their use in medicine, process for their preparation and pharmaceutical compositions containing them” (Dr. Reddy's Laboratories, Inc., priority 2001, dated 2009).
Counter-ions that a name gives are not always drawn. Each block holds one compound with its values, some of them ahead of it.

Columns and labels:
hPPARα = molecular target: T1, hPPARα (Homo sapiens, UniProt Q07869); test: Determination of hPPARα activity (GAL4 luciferase reporter, transfected HEK-293 cells); assay type: cell-based; details: compound concentration 50 μM
T1 construct: expressed in transfected cells; host or cells: HEK-293
T1 sequence (Q07869 239-466 limits assumed): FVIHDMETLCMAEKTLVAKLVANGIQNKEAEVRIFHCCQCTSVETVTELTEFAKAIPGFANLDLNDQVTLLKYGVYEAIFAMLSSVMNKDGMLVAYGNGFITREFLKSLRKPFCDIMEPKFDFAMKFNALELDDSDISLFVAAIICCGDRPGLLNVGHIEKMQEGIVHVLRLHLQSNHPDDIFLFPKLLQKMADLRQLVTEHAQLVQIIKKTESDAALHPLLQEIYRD
Method: a) Determination of hPPARα activity Ligand binding domain of hPPARα was fused to DNA binding domain of Yeast transcription factor Gal 4 in eucaryotic expression vector. Using superfect (Qiagen, Germany) as transfecting reagent HEK-293 cells are transfected with this plasmid and a reporter plasmid harboring the luciferase gene driven by a GAL4 specific promoter. Compound can be added at different concentrations after 42 hrs of transfection and incubated overnight. Luciferase activity as a function of compound binding/activation capacity of PPARα will be measured using Packard Luclite kit (Packard, USA) in Top Count (Ivan Sadowski, Brendan Bell, Peter Broag and Melvyn Hollis. Gene. 1992. 118: 137-141; Superfect Transfection Reagent Handbook. February 1997. Qiagen, Germany).

hPPARγ1 = molecular target: T2, hPPARγ1 (Homo sapiens, UniProt P37231); test: Determination of hPPARγ activity (GAL4 luciferase reporter, transfected HEK-293 cells); assay type: cell-based; details: compound concentration 1 μM
T2 construct: expressed in transfected cells; host or cells: HEK-293
T2 sequence (P37231 238-503 limits assumed): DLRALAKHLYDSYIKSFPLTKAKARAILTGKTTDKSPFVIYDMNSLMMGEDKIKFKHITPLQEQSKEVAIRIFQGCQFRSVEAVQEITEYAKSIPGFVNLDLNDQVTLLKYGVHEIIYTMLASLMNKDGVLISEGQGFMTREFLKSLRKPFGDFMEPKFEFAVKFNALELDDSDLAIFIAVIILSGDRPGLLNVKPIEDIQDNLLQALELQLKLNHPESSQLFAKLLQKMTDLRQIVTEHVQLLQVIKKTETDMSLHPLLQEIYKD
Method: b) Determination of hPPARγ activity Ligand binding domain of hPPARγ1 is fused to DNA binding domain of Yeast transcription factor GAL4 in eucaryotic expression vector. Using lipofectamine (Gibco BRL, USA) as transfecting reagent HEK-293 cells are transfected with this plasmid and a reporter plasmid harboring the luciferase gene driven by a GAL4 specific promoter. Compound can be added at 1 μM concentration after 48 hrs of transfection and incubated overnight. Luciferase activity as a function of drug binding/activation capacity of PPARγ1 will be measured using Packard Luclite kit (Packard, USA) in Packard Top Count (Ivan Sadowski, Brendan Bell, Peter Broag and Melvyn Hollis. Gene. 1992. 118: 137-141; Guide to Eukaryotic Transfections with Cationic Lipid Reagents. Life Technologies, GIBCO BRL, USA).

C57BL/KsJ-db/db mice = test: Efficacy in genetic models: blood sugar and triglyceride lowering in db/db mice; assay type: in vivo, mouse; details: 3 mg/kg oral, results after 6 days
Source text: a) Efficacy in Genetic Models Mutation in colonies of laboratory animals and different sensitivities to dietary regimens has made the development of animal models with non-insulin dependent diabetes and hyperlipidemia associated with obesity and insulin resistance possible. Genetic models such as db/db and ob/ob (Diabetes, (1982) 31(1): 1-6) mice and zucker fa/fa rats have been developed by the various laboratories for understanding the pathophysiology of disease and testing the efficacy of new antidiabetic compounds (Diabetes, (1983) 32: 830-838; Annu. Rep. Sankyo Res. Lab. (1994). 46: 1-57). The homozygous animals, C57 BL/KsJ-db/db mice developed by Jackson Laboratory, US, are obese, hyperglycemic, hyperinsulinemic and insulin resistant (J. Clin. Invest., (1990) 85: 962-967), whereas heterozygous are lean and normoglycemic. In db/db model, mouse progressively develops insulinopenia with age, a feature commonly observed in late stages of human type II diabetes when blood sugar levels are insufficiently controlled. The state of pancreas and its course vary according to the models. Since this model resembles that of type II diabetes mellitus, the compounds of the present invention will be tested for blood sugar and triglycerides lowering activities.
Male C57BL/KsJ-db/db mice of 8 to 14 weeks age, having body weight range of 35 to 60 grams, bred at Dr. Reddy's Research Foundation (DRF) animal house, were used in the experiment. The mice are provided with standard feed (National Institute of Nutrition (NIN), Hyderabad, India) and acidified water, ad libitum. The animals having more than 350 mg/dl blood sugar will be used for testing. The number of animals in each group will be 4.
Test compounds are suspended on 0.25% carboxymethyl cellulose and administered to test group at a dose of 0.1 mg to 30 mg/kg through oral gavage daily for 6 days. The control group receives vehicle (dose 10 ml/kg). On 6th day the blood samples will be collected one hour after administration of test compounds/vehicle for assessing the biological activity.
The random blood sugar and triglyceride levels can be measured by collecting blood (100 μl) through orbital sinus, using heparinised capillary in tubes containing EDTA which was centrifuged to obtain plasma. The plasma glucose and triglyceride levels can be measured spectrometrically, by glucose oxidase and glycerol-3-PO4 oxidase/peroxidase enzyme (Dr. Reddy's Lab. Diagnostic Division Kits, Hyderabad, India) methods respectively.
The blood sugar and triglycerides lowering activities of the test compound are calculated according to the formula.
(§1) 1. Percent reduction in Blood sugar/triglycerides/total cholesterol will be calculated according to the formula:
(§2) [formula] • OC=Zero day control group value • OT=Zero day treated group value • TC=Test day control group value • TT=Test day treated group value

[1] = system: hypercholesterolemic Sprague Dawley rats; test: Plasma triglyceride and cholesterol lowering activity in hypercholesterolemic rat models; assay type: in vivo; details: 1 mg/kg oral, results after 3 days
Method: b) Plasma triglyceride and Cholesterol lowering activity in hypercholesterolemic rat models Male Sprague Dawley rats (NIN stock) were bred in DRF animal house. Animals were maintained under 12 hour light and dark cycle at 25±1° C. Rats of 180-200 gram body weight range were used for the experiment. Animals are made hypercholesterolemic by feeding 2% cholesterol and 1% sodium cholate mixed with standard laboratory chow [National Institute of Nutrition (NIN), Hyderabad, India] for 6 days. Throughout the experimental period the animals were maintained on the same diet (Petit, D., Bonnefis, M. T., Rey, C and Infante, R. Effects of ciprofibrate on liver lipids and lipoprotein synthesis in normo- and hyperlipidemic rats. Atherosclerosis. 1988. 74: 215-225).
The test compounds can be administered orally at a dose 0.1 to 30 mg/kg/day for 3 days. Control group was treated with vehicle alone (0.25% Carboxymethylcellulose; dose 10 ml/kg).
The blood samples can be collected in fed state 1 hour after drug administration on 0 and 3 day of compound treatment. The blood can be collected from the retro-orbital sinus through heparinised capillary in EDTA containing tubes. After centrifugation, plasma sample will be separated for total cholesterol, HDL and triglyceride estimations. Measurement of plasma triglyceride, total cholesterol and HDL were done using commercial kits (Dr. Reddy's Laboratory, Diagnostic Division, India). LDL and VLDL cholesterol can be calculated from the data obtained for total cholesterol, HDL and triglyceride. The reductions of various parameters examined are calculated according to the formula.
as §1, §2
2. LDL and VLDL, cholesterol levels will be calculated according to the formula:
[formula] VLDL cholesterol in mg/dl=[Total cholesterol-HDL cholesterol-LDL cholesterol]mg/dl.

melting point: 116 to 118 °C
SMILES: CO[C@@H](Cc1ccc(NC/C=C/c2ccc(OS(C)(=O)=O)cc2)cc1)C(=O)O (hydrate or solvate) [Example 43, (S)-2-Methoxy-3-[4-{(E)-3-(4-methylsulfonyloxyphenyl)-2-propenylamino}phenyl]propionic acid]

PPARα (hPPARα): 8.5 | PPARγ (hPPARγ1): 0.8
SMILES: CCOC(Cc1ccc(NC/C=C/c2ccc(OS(C)(=O)=O)cc2)cc1)C(=O)O (centres unmarked) [Example 27, 2-Ethoxy-3-{4-[(E)-3-(4-methylsulfonyloxyphenyl)-2-propenylamino]phenyl}propionic acid]

melting point: 178 to 180 °C
SMILES: CCOC(Cc1ccc(NC(=O)/C=C/c2ccc(OS(C)(=O)=O)cc2)cc1)C(=O)O (centres unmarked) [Example 32, 2-Ethoxy-3-{4-[(E)-2-(4-methylsulfonyloxyvhenyl)-1-ethenylcarboxamido]-phenyl}propionic acid]

melting point: 90 to 92 °C
SMILES: CCOC(=O)C(Cc1ccc(NC(=O)CCc2ccc(OS(C)(=O)=O)cc2)cc1)OCC (centres unmarked) [Example 33, Ethyl 2-ethoxy-3-[4-(4-methylsulfonyloxyphenethylcarboxamido)phenyl]-propionate]

melting point: 164 to 166 °C
SMILES: CCOC(Cc1ccc(NC(=O)CCc2ccc(OS(C)(=O)=O)cc2)cc1)C(=O)O (centres unmarked) [Example 34]

Further lines, the compound ahead of its results:

SMILES: CCOC(Cc1ccc(NCCCc2ccc(OS(C)(=O)=O)cc2)cc1)C(=O)O (centres unmarked) (hydrate or solvate) [Example 15, 2-Ethoxy-3-[4-{3-(4-methanesulfonyloxyphenyl)propylamino}phenyl]propionic acid]
melting point: 120 to 122 °C

SMILES: CCOC(Cc1ccc(NCCCc2ccc(OS(=O)(=O)c3ccc(C)cc3)cc2)cc1)C(=O)O (centres unmarked) (hydrate or solvate) [Example 19, 2-ethoxy-3-[4-{3-(4-(toluene-4-sulfonyloxy)phenyl)propylamino}phenyl]propionate]
melting point: 98 to 100 °C

SMILES: CC(C)OC(Cc1ccc(NCCCc2ccc(OS(C)(=O)=O)cc2)cc1)C(=O)O (centres unmarked) (hydrate or solvate) [Example 21, 2-Isopropoxy-3-[4-{3-(4-methanesulfonyloxyphenyl)propylamino}phenyl]propionic acid]
melting point: 143 to 145 °C

SMILES: CCOC(Cc1ccc(NC/C=C/c2ccc(OS(C)(=O)=O)cc2)cc1)C(=O)O (stereo in doubt) [Example 25, (S)-2-Ethoxy-3-{4-[(E)-3-(4-methylsulfonyloxyphenyl)-2-prope-nylamino]phenyl}propionic acid]
melting point: 156 to 158 °C

SMILES: CO[C@@H](Cc1ccc(NCCCc2ccc(OS(C)(=O)=O)cc2)cc1)C(=O)O [Example 14, (S)-2-Methoxy-3-[4-{3-(4-methanesulfonyloxyphenyl)propylamino}phenyl]propionic acid]
PPARα (hPPARα): 9.4 | PPARγ (hPPARγ1): 0.7 | melting point: 90 to 92 °C

SMILES: CCOC(Cc1ccc(NCCCc2ccc(OS(C)(=O)=O)cc2)cc1)C(=O)O (centres unmarked) [Example 15, 2-Ethoxy-3-[4-{3-(4-methanesulfonyloxyphenyl)propylamino}phenyl]propionic acid]
PPARα (hPPARα): 6.1 | PPARγ (hPPARγ1): 0.7

SMILES: CCOC(Cc1cccc(NCCCc2ccc(OS(C)(=O)=O)cc2)c1)C(=O)O (centres unmarked) [Example 39, 2-Ethoxy-3-[3-{3-(4-methanesulfonyloxyphenyl)propylamino}phenyl]propionic acid Arginine salt]
Reduction in Blood Glucose Level (%) (C57BL/KsJ-db/db mice): 56% | Triglyceride Lowering (%) (C57BL/KsJ-db/db mice): 36%

SMILES: CCOC(=O)[C@H](Cc1ccc(NC/C=C/c2ccc(OS(C)(=O)=O)cc2)cc1)OC [Example 42, (S) Ethyl 2-methoxy-3-[4-{(E)-3-(4-methylsulfonyloxyphenyl)-2-propenylamino}phenyl]propionate]
Reduction in Blood Glucose Level (%) (C57BL/KsJ-db/db mice): 63% | Triglyceride Lowering (%) (C57BL/KsJ-db/db mice): 56%

SMILES: CO[C@@H](Cc1ccc(NC/C=C/c2ccc(OS(C)(=O)=O)cc2)cc1)C(=O)O [Example 43, (S)-2-Methoxy-3-[4-{(E)-3-(4-methylsulfonyloxyphenyl)-2-propenylamino}phenyl]propionic acid]
Increase in High Density Lipoprotein (%) [1]: 77% | Reduction in Total Cholesterol (%) [1]: 53% | Triglyceride Lowering (%) [1]: 55% | Reduction in Low Density Lipoprotein (%) ([1]; LDL calculated from total cholesterol, HDL and triglyceride): 56%
